Holding throughout (experiment): biochemical
Holding throughout (set-up): Fluorogenic phosphatase assay, DiFMUP hydrolysis by recombinant PTPs, initial velocity, Ex/Em 355/460 nm
What all share (settings): read-out: Inhibition by 20 µM polyphyllin D (%)

One assay concerns the target T1, PTPN1 (PTP1B) (Homo sapiens, UniProt P18031).
T1 construct: 1-299
T1 sequence (P18031 1-435): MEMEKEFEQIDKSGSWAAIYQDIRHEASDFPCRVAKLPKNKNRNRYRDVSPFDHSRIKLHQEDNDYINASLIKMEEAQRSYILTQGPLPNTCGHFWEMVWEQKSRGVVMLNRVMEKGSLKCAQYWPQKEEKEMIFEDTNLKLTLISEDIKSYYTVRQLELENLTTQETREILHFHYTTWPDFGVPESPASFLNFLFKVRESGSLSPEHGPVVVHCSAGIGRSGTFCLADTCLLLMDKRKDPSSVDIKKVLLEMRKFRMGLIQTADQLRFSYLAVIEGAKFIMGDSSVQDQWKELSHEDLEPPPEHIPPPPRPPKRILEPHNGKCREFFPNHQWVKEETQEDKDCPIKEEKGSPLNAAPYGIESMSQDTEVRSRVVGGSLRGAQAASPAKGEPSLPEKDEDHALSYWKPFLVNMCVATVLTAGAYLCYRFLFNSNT

The target in a further assay is T2, PTPN2 (TCPTP) (Homo sapiens, UniProt P17706).
T2 construct: 1-387
T2 sequence (P17706 1-415): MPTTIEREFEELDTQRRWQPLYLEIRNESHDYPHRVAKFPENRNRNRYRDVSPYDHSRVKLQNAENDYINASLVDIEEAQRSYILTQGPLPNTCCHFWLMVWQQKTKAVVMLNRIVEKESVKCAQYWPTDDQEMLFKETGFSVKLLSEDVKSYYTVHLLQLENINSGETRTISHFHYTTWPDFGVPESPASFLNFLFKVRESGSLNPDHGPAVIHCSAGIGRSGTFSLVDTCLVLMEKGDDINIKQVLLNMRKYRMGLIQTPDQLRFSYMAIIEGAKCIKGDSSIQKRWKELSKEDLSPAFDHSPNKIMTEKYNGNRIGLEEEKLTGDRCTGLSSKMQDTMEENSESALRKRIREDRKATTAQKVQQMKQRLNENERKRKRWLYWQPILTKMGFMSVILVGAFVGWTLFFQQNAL

Another assay deals with T3, PTPN22 (LYP) (Homo sapiens, UniProt Q9Y2R2).
T3 construct: 1-326
T3 sequence (Q9Y2R2 1-807): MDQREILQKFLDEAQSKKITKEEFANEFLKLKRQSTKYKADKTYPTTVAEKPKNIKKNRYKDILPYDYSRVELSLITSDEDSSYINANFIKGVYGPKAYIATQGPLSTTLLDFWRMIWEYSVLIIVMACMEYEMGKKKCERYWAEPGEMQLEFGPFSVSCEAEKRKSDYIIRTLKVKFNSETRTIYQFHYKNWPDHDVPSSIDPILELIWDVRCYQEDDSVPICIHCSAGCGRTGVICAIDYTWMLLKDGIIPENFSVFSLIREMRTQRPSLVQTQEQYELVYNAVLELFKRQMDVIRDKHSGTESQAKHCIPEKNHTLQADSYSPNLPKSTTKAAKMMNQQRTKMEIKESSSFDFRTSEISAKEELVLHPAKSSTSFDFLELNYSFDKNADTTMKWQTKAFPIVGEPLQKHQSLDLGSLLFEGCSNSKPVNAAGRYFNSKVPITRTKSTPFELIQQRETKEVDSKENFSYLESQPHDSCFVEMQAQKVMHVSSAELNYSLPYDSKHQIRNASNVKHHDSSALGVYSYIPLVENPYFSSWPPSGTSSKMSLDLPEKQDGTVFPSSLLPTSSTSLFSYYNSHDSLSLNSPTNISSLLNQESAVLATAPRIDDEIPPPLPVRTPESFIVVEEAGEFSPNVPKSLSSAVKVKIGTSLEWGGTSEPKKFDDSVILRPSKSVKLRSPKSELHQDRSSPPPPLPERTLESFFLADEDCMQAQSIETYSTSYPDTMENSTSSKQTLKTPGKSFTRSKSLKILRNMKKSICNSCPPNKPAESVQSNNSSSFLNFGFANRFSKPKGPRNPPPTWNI

Consider 1 compound from PMC7915588, “Polyphyllin D Shows Anticancer Effect through a Selective Inhibition of Src Homology Region 2-Containing Protein Tyrosine Phosphatase-2 (SHP2)” (Molecules, 2021).

Regarding `C[C@@H]1CC[C@@]2(OC1)O[C@H]1C[C@H]3[C@@H]4CC=C5C[C@@H](O[C@@H]6O[C@H](CO)[C@@H](O[C@@H]7O[C@@H](CO)[C@H](O)[C@H]7O)[C@H](O)[C@H]6O[C@@H]6O[C@@H](C)[C@H](O)[C@@H](O)[C@H]6O)CC[C@]5(C)[C@H]4CC[C@]3(C)[C@H]1[C@@H]2C` [polyphyllin D], the results for the inhibition at 20 µM on PTPN1 (PTP1B), on PTPN2 (TCPTP) and on PTPN22 (LYP) were 0%, 7.5% and 0.1%, respectively.
